± gives the expanded uncertainty stated by the source.
Details: Coaxial cylinder method

CCC [propane]
thermal conductivity [W/m/K]
Details | 365.72 K | 366.45 K
3595 kPa, Gas | – | 0.03694 ± 0.0023
3610 kPa, Gas | – | 0.0371 ± 0.0023
3880 kPa, Gas | – | 0.04193 ± 0.0026
3882 kPa, Gas | – | 0.04198 ± 0.0026
3908 kPa, Gas | – | 0.04282 ± 0.0027
3915 kPa, Gas | – | 0.04316 ± 0.0027
3920 kPa, Gas | – | 0.04339 ± 0.0027
3925 kPa, Gas | – | 0.04359 ± 0.0027
3930 kPa, Gas | – | 0.04383 ± 0.0027
3935 kPa, Gas | – | 0.04406 ± 0.0028
3937 kPa, Gas | – | 0.04421 ± 0.0028
3949 kPa, Gas | – | 0.04486 ± 0.0028
3950 kPa, Gas | – | 0.04487 ± 0.0028
3951 kPa, Gas | – | 0.04497 ± 0.003
3952 kPa, Gas | – | 0.04502 ± 0.0031
3953 kPa, Gas | – | 0.04507 ± 0.022
3954 kPa, Gas | – | 0.04513 ± 0.021
3955 kPa, Gas | – | 0.04847 ± 0.02
3956 kPa, Gas | – | 0.0498 ± 0.019
3957 kPa, Gas | – | 0.0512 ± 0.018
3958 kPa, Gas | – | 0.05294 ± 0.017
3959 kPa, Gas | – | 0.05452 ± 0.016
3960 kPa, Gas | – | 0.05651 ± 0.015
3961 kPa, Gas | – | 0.05848 ± 0.015
3962 kPa, Gas | – | 0.06058 ± 0.014
3963 kPa, Gas | – | 0.06307 ± 0.013
3964 kPa, Gas | – | 0.06573 ± 0.013
3965 kPa, Gas | – | 0.06816 ± 0.012
3966 kPa, Gas | – | 0.07114 ± 0.012
3967 kPa, Gas | – | 0.07411 ± 0.011
3968 kPa, Gas | – | 0.07748 ± 0.011
3969 kPa, Gas | – | 0.08195 ± 0.01
3970 kPa, Gas | – | 0.08706 ± 0.0099
3971 kPa, Gas | – | 0.09339 ± 0.015
3972 kPa, Gas | – | 0.09783 ± 0.014
3973 kPa, Gas | – | 0.1017 ± 0.013
3974 kPa, Gas | – | 0.108 ± 0.011
3975 kPa, Gas | – | 0.114 ± 0.0092
3976 kPa, Gas | – | 0.1185 ± 0.0084
3977 kPa, Gas | – | 0.1239 ± 0.0082
3978 kPa, Gas | – | 0.1288 ± 0.0082
3978 kPa, Liquid | 0.08613 ± 0.0083 | –
3979 kPa, Gas | – | 0.1341 ± 0.0085
3979 kPa, Liquid | 0.08495 ± 0.0083 | –
3980 kPa, Gas | – | 0.1393 ± 0.0088
3980 kPa, Liquid | 0.08381 ± 0.0083 | –
3981 kPa, Gas | – | 0.1449 ± 0.0092
3982 kPa, Gas | – | 0.1502 ± 0.0097
3983 kPa, Gas | – | 0.1559 ± 0.01
3984 kPa, Gas | – | 0.1614 ± 0.011
3985 kPa, Gas | – | 0.1661 ± 0.011
3985 kPa, Liquid | 0.07882 ± 0.0075 | –
3986 kPa, Gas | – | 0.1732 ± 0.011
3987 kPa, Gas | – | 0.1794 ± 0.012
3988 kPa, Gas | – | 0.1853 ± 0.014
3989 kPa, Gas | – | 0.1916 ± 0.015
3990 kPa, Gas | – | 0.1977 ± 0.016
3990 kPa, Liquid | 0.07478 ± 0.0069 | –
3991 kPa, Gas | – | 0.2045 ± 0.017
3992 kPa, Gas | – | 0.2108 ± 0.018
3993 kPa, Gas | – | 0.2174 ± 0.017
3994 kPa, Gas | – | 0.224 ± 0.018
3995 kPa, Gas | – | 0.2309 ± 0.018
3995 kPa, Liquid | 0.07164 ± 0.0061 | –
3996 kPa, Gas | – | 0.2389 ± 0.019
3997 kPa, Liquid | – | 0.2535 ± 0.02
3998 kPa, Liquid | – | 0.2389 ± 0.019
3999 kPa, Liquid | – | 0.2261 ± 0.018
4000 kPa, Liquid | 0.06921 ± 0.0055 | 0.2153 ± 0.017
4001 kPa, Liquid | – | 0.2051 ± 0.016
4002 kPa, Liquid | – | 0.196 ± 0.015
4003 kPa, Liquid | – | 0.1879 ± 0.015
4004 kPa, Liquid | – | 0.1801 ± 0.014
4005 kPa, Liquid | – | 0.1734 ± 0.014
4006 kPa, Liquid | – | 0.1669 ± 0.013
4007 kPa, Liquid | – | 0.1612 ± 0.012
4008 kPa, Liquid | – | 0.1563 ± 0.012
4009 kPa, Liquid | – | 0.1513 ± 0.013
4010 kPa, Liquid | 0.066 ± 0.0047 | 0.1467 ± 0.013
4011 kPa, Liquid | – | 0.1425 ± 0.013
4012 kPa, Liquid | – | 0.1387 ± 0.012
4014 kPa, Liquid | 0.06521 ± 0.0045 | –
4020 kPa, Liquid | 0.06438 ± 0.0043 | –
4025 kPa, Liquid | 0.06418 ± 0.0043 | –
4030 kPa, Liquid | 0.06394 ± 0.0042 | –
4035 kPa, Liquid | 0.06394 ± 0.0042 | –
4040 kPa, Liquid | 0.06389 ± 0.0042 | –
4045 kPa, Liquid | 0.06389 ± 0.0042 | –
4050 kPa, Liquid | 0.06389 ± 0.0042 | –
4055 kPa, Liquid | 0.06385 ± 0.0042 | –
4060 kPa, Liquid | 0.06385 ± 0.0042 | –
4080 kPa, Liquid | 0.06377 ± 0.0042 | –
4100 kPa, Liquid | 0.06375 ± 0.0042 | –
4120 kPa, Liquid | 0.06375 ± 0.0042 | –
4140 kPa, Liquid | 0.06377 ± 0.0042 | –
4160 kPa, Liquid | 0.06377 ± 0.0042 | –
4180 kPa, Liquid | 0.06377 ± 0.0042 | –
4200 kPa, Liquid | 0.06381 ± 0.0042 | –
4250 kPa, Liquid | 0.06392 ± 0.0042 | –
4275 kPa, Liquid | 0.06396 ± 0.0042 | –
4350 kPa, Liquid | 0.06412 ± 0.0042 | –
4400 kPa, Liquid | 0.06428 ± 0.0042 | –
4450 kPa, Liquid | 0.06442 ± 0.0042 | –
4500 kPa, Liquid | 0.06459 ± 0.0042 | –
4560 kPa, Liquid | 0.06484 ± 0.0042 | –
4580 kPa, Liquid | 0.0649 ± 0.0042 | –
4670 kPa, Liquid | 0.06519 ± 0.0042 | –
4690 kPa, Liquid | 0.06519 ± 0.0042 | –
